Structures can show the parent of a compound that is named as a salt. Where two headings read alike, the source gives them in different places.
Assays:
[1] = system: acetylcholine activity on heart rate; experiment: Inhibition of the effect of acetylcholine on heart rate in guinea pigs; format: in vivo, guinea pig; settings: Cavia porcellus, 5 min
Description: (§1) The objective of the methods was to confirm the selectivity of the antimuscarinic effect. Those substances which had been selected on the basis of "in vitro" tests were tested for their 3. […] M1 /M2 SELECTIVITY IN THE RAT 3. INHIBITION OF THE EFFECT OF ACETYLCHOLINE ON THE BLADDER, BRONCHI AND HEART RATE IN GUINEA PIGS 5 minutes after the administration of the test substance, 10 microgram/kg of acetylcholine were simultaneously injected intravenously and intra-arterially into anaesthetised guinea pigs. The heart rate was recorded directly by extracorporeal derivation of the ECG, the expiration resistance according to Konzett-Ro ler and contraction of the exposed bladder. In order to determine the inhibition of the acetylcholine activity on the organs under investigation, dosage/activity curves were recorded and from them -log ED50 values were determined.

[2] = molecular target: T1, muscarinic receptors (heart) (Rattus norvegicus, UniProt P10980); experiment: biochemical; design: species or system male Sprague-Dawley rats; settings: whole heart homogenate; 0.3 nanomolar 3H-NMS; 30 C; 45 minutes; pH 7.4; read-out: Receptor Binding Tests IC50, Heart
T1 sequence (P10980 1-466): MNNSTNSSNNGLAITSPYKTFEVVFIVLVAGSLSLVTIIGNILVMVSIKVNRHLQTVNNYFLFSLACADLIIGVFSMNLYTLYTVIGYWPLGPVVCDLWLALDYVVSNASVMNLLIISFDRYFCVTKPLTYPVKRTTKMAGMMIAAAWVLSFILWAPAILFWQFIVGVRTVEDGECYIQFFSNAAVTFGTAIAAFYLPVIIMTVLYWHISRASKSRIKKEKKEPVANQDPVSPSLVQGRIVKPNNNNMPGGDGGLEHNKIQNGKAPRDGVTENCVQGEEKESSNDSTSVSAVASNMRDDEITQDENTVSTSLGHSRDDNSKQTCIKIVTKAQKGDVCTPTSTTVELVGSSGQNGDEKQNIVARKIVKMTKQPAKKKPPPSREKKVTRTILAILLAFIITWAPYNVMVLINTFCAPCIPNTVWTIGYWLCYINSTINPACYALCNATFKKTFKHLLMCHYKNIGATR

[3] = system: acetylcholine activity on the bladder; experiment: Inhibition of the effect of acetylcholine on the bladder in guinea pigs; format: in vivo, guinea pig; settings: Cavia porcellus, 5 min
Description: as §1

[4] = molecular target: muscarinic receptors (submandibular gland) (Rattus norvegicus, UniProt P08483); experiment: biochemical; design: species or system male Sprague-Dawley rats; settings: submandibular gland homogenate; 0.3 nanomolar 3H-NMS; 30 C; 45 minutes; pH 7.4; read-out: Receptor Binding Tests IC50, Submandibular gland
Description: (§2) A. Studies of binding to muscarinic receptors:
(§3) In vitro measurement of the IC50 value
(§4) The organs were donated by male Sprague-Dawley rats weighing 180-220 g. After the heart and submandibular gland and cerebral cortex had been removed, all other steps were carried out in ice cold Hepes HCl buffer (pH 7.4; 100 millimolar NaCl, 10 millimolar MgClz). The whole heart was cut up with scissors. All the organs were then homogenised in a Potter apparatus.
(§5) For the binding test the homogenised organs were diluted as follows:
Submandibular gland 1:400
(§6) The homogenised organs were incubated at a certain concentration of the radioligand and at a series of concentrations of the non-radioactive test substances in an Eppendorf centrifuge tube at 30 C. Incubation lasted 45 minutes. The radioligand used was 0.3 nanomolar 3H-N-methylscopolamine (^3 H-NMS). Incubation was ended by the addition of ice cold buffer followed by vacuum filtration. The filters were rinsed with cold buffer and their radioactivity was determined. It represents the sum of specific and non-specific binding of ^3 H-NMS. The proportion of non-specific binding was defined as the radioactivity which was bound in the presence of 1 micromolar quinuclidinylbenzylate. Each measurement was taken four times. The IC50 values of the non-labelled test substances were determined graphically. They represent that concentration of test substance at which the specific binding of 3H-NMS to the muscarinic receptors in the various organs was inhibited by 50%.

[5] = system: acetylcholine activity on the bronchi; experiment: Inhibition of the effect of acetylcholine on the bronchi in guinea pigs; format: in vivo; settings: Cavia porcellus, 5 min; anaesthetised guinea pig; 5 minutes after test substance; 10 microgram/kg acetylcholine; expiration resistance; read-out: -log ED50, Bronchi (converted)
Description: as §1

[6] = molecular target: T2, M1 (Rattus norvegicus, UniProt P08482); experiment: M1/M2 selectivity in the rat: inhibition of McN-A-343-induced rise in blood pressure (M1); format: in vivo, male THOM rats; settings: iv, 5 min
T2 construct: from tissue; host or cells: living rat (male THOM rats, in vivo); sympathetic ganglia by own knowledge
T2 sequence (P08482 1-460): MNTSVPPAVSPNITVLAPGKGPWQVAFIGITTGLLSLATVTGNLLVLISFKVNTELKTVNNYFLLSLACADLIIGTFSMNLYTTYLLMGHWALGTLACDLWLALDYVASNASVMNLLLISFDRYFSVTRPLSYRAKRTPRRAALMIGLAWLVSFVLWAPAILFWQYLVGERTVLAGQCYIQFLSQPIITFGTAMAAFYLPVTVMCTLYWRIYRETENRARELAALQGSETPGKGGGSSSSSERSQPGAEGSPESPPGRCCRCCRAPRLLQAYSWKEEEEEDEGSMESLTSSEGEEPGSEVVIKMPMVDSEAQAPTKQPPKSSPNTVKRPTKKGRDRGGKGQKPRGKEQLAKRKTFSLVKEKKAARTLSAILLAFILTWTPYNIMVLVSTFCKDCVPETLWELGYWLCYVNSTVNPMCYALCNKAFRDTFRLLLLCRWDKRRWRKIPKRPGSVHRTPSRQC
Source text: (§7) B. Investigation of functional selectivity of the antimuscarinic effect
(§8) Substances with antimuscarinic properties inhibit the effects of agonists supplied exogenically or of acetylcholine, which is released from cholinergic nerve endings. The following is a description of some methods that are suitable for the detection of cardioselective antimuscarinic agents.
(§9) The objective of the methods was to confirm the selectivity of the antimuscarinic effect. Those substances which had been selected on the basis of "in vitro" tests were tested for their
(§10) 1. M1 /M2 selectivity in the rat,
(§11) 3. Inhibition of the acetylcholine effect on the bladder, bronchi and heart rate in the guinea pig. 1. M1 /M2 SELECTIVITY IN THE RAT
The dosage of the substances which reduced either the vagal bradycardia (M2) or the rise in blood pressure (M1) by 50% was determined graphically. For the results see Table II.

[7] = system: secretion of saliva; experiment: Salivation-inhibiting effect in the rat (pilocarpine-induced saliva secretion); format: in vivo, male THOM rats; settings: iv; urethane-anaesthetised rat; i.v.; pilocarpine 2 mg/kg s.c.; read-out: -log ED50, Salivation (converted)
Description: as §9
2. Salivation-inhibiting effect on the rat and
2. SALIVATION-INHIBITING EFFECT IN THE RAT
The secretion of saliva was initiated by subcutaneous administration of 2 mg/kg of pilocarpine. The saliva was absorbed with blotting paper and the surface area covered was measured every 5 minutes by planimetry. The dosage of the substance which reduced the volume of saliva by 50% was determined graphically. For the results see Table II.

[8] = molecular target: T3, M2 (Rattus norvegicus, UniProt P10980); experiment: M1/M2 selectivity in the rat: inhibition of vagal bradycardia (M2); format: in vivo, male THOM rats; settings: iv, 5 min
T3 construct: The bradycardia caused by vagus stimulation; from tissue; host or cells: heart of the living rat (male THOM rats, in vivo)
T3 sequence (P10980 1-466): T1 sequence (P10980 1-466)
Source text: as §7, §8, §9, §10, §11
The method used was described by Hammer and Giachetti (Life Sciences 31, 2991-2998 (1982)). 5 minutes after the intravenous injection of increasing doses of the substance, either the right vagus was electrically stimulated (frequency: 25 Hz; pulse width: 2ms; duration of stimulus: 30s; voltage: supramaximal) or 0.3 mg/kg of McN-A-343 were intravenously injected into male THOM rats. The bradycardia caused by vagus stimulation and the rise in blood pressure caused by McN-A-343 were determined. The dosage of the substances which reduced either the vagal bradycardia (M2) or the rise in blood pressure (M1) by 50% was determined graphically. For the results see Table II.

[9] = molecular target: muscarinic receptors (cerebral cortex); experiment: Muscarinic receptor binding, cerebral cortex (displacement of 3H-N-methylscopolamine); design: species or system male Sprague-Dawley rats; settings: cerebral cortex homogenate; 0.3 nanomolar 3H-NMS; 30 C; 45 minutes; pH 7.4; read-out: Receptor Binding Tests IC50, Cortex
Description: as §2, §3, §4, §5
as §6, with “They represent that concentration of test substance at which the specific binding of 3H-NMS to the muscarinic receptors in the various organs was inhibited by 50%.” left out

[10] = anaesthetised guinea pig, 5 minutes after test substance, 10 microgram/kg acetylcholine, read-out: -log ED50, Heart (converted)
[11] = anaesthetised guinea pig, 5 minutes after test substance, 10 microgram/kg acetylcholine, contraction of exposed bladder, read-out: -log ED50, Bladder (converted)
[12] = i.v., 5 minutes after injection, 0.3 mg/kg McN-A-343 i.v., read-out: -log ED50, Blood pressure (McN-A-343 pressor response, M1) (converted)
[13] = i.v., 5 minutes after injection, vagus stimulation 25 Hz, read-out: -log ED50, Heart (vagal bradycardia, M2) (converted)

Sequence of muscarinic receptors (submandibular gland) (P08483 whole entry): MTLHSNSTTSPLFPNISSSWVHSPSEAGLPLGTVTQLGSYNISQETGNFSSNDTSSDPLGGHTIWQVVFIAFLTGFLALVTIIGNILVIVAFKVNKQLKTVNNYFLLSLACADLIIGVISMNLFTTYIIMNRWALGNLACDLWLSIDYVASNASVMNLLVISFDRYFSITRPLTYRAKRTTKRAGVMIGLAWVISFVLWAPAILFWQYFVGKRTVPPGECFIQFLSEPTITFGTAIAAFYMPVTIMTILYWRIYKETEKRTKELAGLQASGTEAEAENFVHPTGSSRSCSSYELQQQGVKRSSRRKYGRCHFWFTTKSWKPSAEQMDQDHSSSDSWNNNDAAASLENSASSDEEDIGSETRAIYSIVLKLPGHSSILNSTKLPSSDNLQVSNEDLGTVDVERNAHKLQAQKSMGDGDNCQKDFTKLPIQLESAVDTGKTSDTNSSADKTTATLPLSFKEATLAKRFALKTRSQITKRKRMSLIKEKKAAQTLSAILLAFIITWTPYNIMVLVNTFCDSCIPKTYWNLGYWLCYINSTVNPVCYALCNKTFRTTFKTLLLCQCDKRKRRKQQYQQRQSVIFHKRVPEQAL

SMILES | ED50 [1, 10] [µmol/kg] | IC50 [2] [nM] | ED50 [3, 11] [µmol/kg] | IC50 [4] [nM] | ED50 [5] [µmol/kg] | ED50 [6, 12] [µmol/kg] | ED50 [7] [µmol/kg] | ED50 [8, 13] [µmol/kg] | IC50 [9] [nM] | ED50 ([1]; read-out: -log ED50, Heart) [µmol/kg] | ED50 ([3]; read-out: -log ED50, Bladder) [µmol/kg] | ED50 ([6]; read-out: -log ED50, Blood pressure (McN-A-343 pressor response, M1)) [µmol/kg] | ED50 ([8]; read-out: -log ED50, Heart (vagal bradycardia, M2)) [µmol/kg]
CN(CCC1CCCN1C)CC(=O)N1c2ccccc2C(=O)Nc2cccnc21 (stereo not drawn) [Substance A, hydrochloride] | 0.02 | 9 | 0.141 | 80 | 0.0251 | 0.0871 | 0.158 | 0.0123 | – | – | – | – | –
CCN(CCC1CCCN1C)CC(=O)N1c2cc(Cl)ccc2C(=O)Nc2cccnc21 (stereo not drawn) [Substance B, 9-chloro-5,11-dihydro-11[[[2-(1-methyl-2-pyrrolidinyl)ethyl]ethylamino]acetyl]-6H-pyrido-[2,3-b][1,4]benzodiazepin-6-one] | 0.1 | 10 | 0.832 | 100 | 0.191 | – | – | – | 70 | – | – | – | –
CN(CCC1CCCN1C)CC(=O)N1c2ccccc2NC(=O)c2ccccc21 (stereo not drawn) [Substance C, 5,10-dihydro-5-[[[2-(1-methyl-2-pyrrolidinyl)-ethyl]methylamino]acetyl]-11H-dibenzo[b,e][1,4]-diazepin-11-one hydrochloride] | 0.0288 | 3 | 0.234 | 20 | 0.0295 | – | – | – | 8 | – | – | – | –
CCN(CC)CC1CCCCN1CC(=O)N1c2ccccc2C(=O)Nc2cccnc21 (stereo not drawn) [Substance D, 11-[[2-[(diethylamino)methyl]-1-piperidinyl]acetyl]-5,11-dihydro-6H-pyrido[2,3-b][1,4]benzodiazepin-6-one] | – | – | – | – | – | 2.34 | 10 | 0.38 | – | – | – | – | –
CN1C2CCC1CC(OC(=O)C(CO)c1ccccc1)C2 (stereo not drawn) [Substance F, atropine, reference compound] | – | – | – | – | – | – | – | – | – | 0.02 | 0.0933 | 0.0457 | 0.0115

Reference: patent US5002943A, “Condensed diazepinones, processes for preparing them and pharmaceutical compositions containing these compounds” (priority 1988, dated 1991)
